Data taken from the NIST ThermoML archive (doi:10.1016/j.jct.2012.09.012).
± gives the expanded uncertainty stated by the source.

Test: molar heat capacity at constant pressure; xn = mol fraction of the nth substance listed
Details: 101 kPa, Liquid, Small sample (50 mg) DSC

CC1=CC[C@H]2C[C@@H]1C2(C)C [(S)-2-pinene] + C=C1CCC2CC1C2(C)C
molar heat capacity at constant pressure (368.17 K, x1 = 0.1002): 279.28 ± 9.5 J/K/mol
molar heat capacity at constant pressure (368.17 K, x1 = 0.2041): 279.28 ± 9.5 J/K/mol
molar heat capacity at constant pressure (368.17 K, x1 = 0.2997): 279.28 ± 9.5 J/K/mol
molar heat capacity at constant pressure (368.17 K, x1 = 0.3922): 279.28 ± 9.5 J/K/mol
molar heat capacity at constant pressure (368.17 K, x1 = 0.5012): 280.64 ± 9.5 J/K/mol
molar heat capacity at constant pressure (368.17 K, x1 = 0.5907): 280.64 ± 9.5 J/K/mol
molar heat capacity at constant pressure (368.17 K, x1 = 0.7026): 276.56 ± 9.5 J/K/mol
molar heat capacity at constant pressure (368.17 K, x1 = 0.7987): 276.56 ± 9.5 J/K/mol
molar heat capacity at constant pressure (368.17 K, x1 = 0.9002): 277.92 ± 9.5 J/K/mol
molar heat capacity at constant pressure (368.17 K, x1 = 1): 279.28 ± 9.5 J/K/mol
molar heat capacity at constant pressure (373.21 K, x1 = 0.1002): 283.37 ± 9.5 J/K/mol
molar heat capacity at constant pressure (373.21 K, x1 = 0.2041): 282 ± 9.5 J/K/mol
molar heat capacity at constant pressure (373.21 K, x1 = 0.2997): 282 ± 9.5 J/K/mol
molar heat capacity at constant pressure (373.21 K, x1 = 0.3922): 282 ± 9.5 J/K/mol
molar heat capacity at constant pressure (373.21 K, x1 = 0.5012): 282 ± 9.5 J/K/mol
molar heat capacity at constant pressure (373.21 K, x1 = 0.5907): 282 ± 9.5 J/K/mol
molar heat capacity at constant pressure (373.21 K, x1 = 0.7026): 279.28 ± 9.5 J/K/mol
molar heat capacity at constant pressure (373.21 K, x1 = 0.7987): 280.64 ± 9.5 J/K/mol
molar heat capacity at constant pressure (373.21 K, x1 = 0.9002): 279.28 ± 9.5 J/K/mol
molar heat capacity at constant pressure (373.21 K, x1 = 1): 282 ± 9.5 J/K/mol
molar heat capacity at constant pressure (378.2 K, x1 = 0.1002): 284.73 ± 9.5 J/K/mol
molar heat capacity at constant pressure (378.2 K, x1 = 0.2041): 283.37 ± 9.5 J/K/mol
molar heat capacity at constant pressure (378.2 K, x1 = 0.2997): 284.73 ± 9.5 J/K/mol
molar heat capacity at constant pressure (378.2 K, x1 = 0.3922): 284.73 ± 9.5 J/K/mol
molar heat capacity at constant pressure (378.2 K, x1 = 0.5012): 284.73 ± 9.5 J/K/mol
molar heat capacity at constant pressure (378.2 K, x1 = 0.5907): 284.73 ± 9.5 J/K/mol
molar heat capacity at constant pressure (378.2 K, x1 = 0.7026): 280.64 ± 9.5 J/K/mol
molar heat capacity at constant pressure (378.2 K, x1 = 0.7987): 282 ± 9.5 J/K/mol
molar heat capacity at constant pressure (378.2 K, x1 = 0.9002): 282 ± 9.5 J/K/mol
molar heat capacity at constant pressure (378.2 K, x1 = 1): 284.73 ± 9.5 J/K/mol
molar heat capacity at constant pressure (383.17 K, x1 = 0.1002): 287.45 ± 9.5 J/K/mol
molar heat capacity at constant pressure (383.17 K, x1 = 0.2041): 286.09 ± 9.5 J/K/mol
molar heat capacity at constant pressure (383.17 K, x1 = 0.2997): 287.45 ± 9.5 J/K/mol
molar heat capacity at constant pressure (383.17 K, x1 = 0.3922): 287.45 ± 9.5 J/K/mol
molar heat capacity at constant pressure (383.17 K, x1 = 0.5012): 286.09 ± 9.5 J/K/mol
molar heat capacity at constant pressure (383.17 K, x1 = 0.5907): 287.45 ± 9.5 J/K/mol
molar heat capacity at constant pressure (383.17 K, x1 = 0.7026): 284.73 ± 9.5 J/K/mol
molar heat capacity at constant pressure (383.17 K, x1 = 0.7987): 283.37 ± 9.5 J/K/mol
molar heat capacity at constant pressure (383.17 K, x1 = 0.9002): 284.73 ± 9.5 J/K/mol
molar heat capacity at constant pressure (383.17 K, x1 = 1): 287.45 ± 9.5 J/K/mol
molar heat capacity at constant pressure (388.2 K, x1 = 0.1002): 291.54 ± 9.5 J/K/mol
molar heat capacity at constant pressure (388.2 K, x1 = 0.2041): 288.82 ± 9.5 J/K/mol
molar heat capacity at constant pressure (388.2 K, x1 = 0.2997): 290.18 ± 9.5 J/K/mol
molar heat capacity at constant pressure (388.2 K, x1 = 0.3922): 291.54 ± 9.5 J/K/mol
molar heat capacity at constant pressure (388.2 K, x1 = 0.5012): 290.18 ± 9.5 J/K/mol
molar heat capacity at constant pressure (388.2 K, x1 = 0.5907): 290.18 ± 9.5 J/K/mol
molar heat capacity at constant pressure (388.2 K, x1 = 0.7026): 288.82 ± 9.5 J/K/mol
molar heat capacity at constant pressure (388.2 K, x1 = 0.7987): 286.09 ± 9.5 J/K/mol
molar heat capacity at constant pressure (388.2 K, x1 = 0.9002): 287.45 ± 9.5 J/K/mol
molar heat capacity at constant pressure (388.2 K, x1 = 1): 291.54 ± 9.5 J/K/mol
molar heat capacity at constant pressure (393.17 K, x1 = 0.1002): 292.9 ± 9.5 J/K/mol
molar heat capacity at constant pressure (393.17 K, x1 = 0.2041): 291.54 ± 9.5 J/K/mol
molar heat capacity at constant pressure (393.17 K, x1 = 0.2997): 292.9 ± 9.5 J/K/mol
molar heat capacity at constant pressure (393.17 K, x1 = 0.3922): 294.27 ± 9.5 J/K/mol
molar heat capacity at constant pressure (393.17 K, x1 = 0.5012): 292.9 ± 9.5 J/K/mol
molar heat capacity at constant pressure (393.17 K, x1 = 0.5907): 291.54 ± 9.5 J/K/mol
molar heat capacity at constant pressure (393.17 K, x1 = 0.7026): 291.54 ± 9.5 J/K/mol
molar heat capacity at constant pressure (393.17 K, x1 = 0.7987): 288.82 ± 9.5 J/K/mol
molar heat capacity at constant pressure (393.17 K, x1 = 0.9002): 288.82 ± 9.5 J/K/mol
molar heat capacity at constant pressure (393.17 K, x1 = 1): 292.9 ± 9.5 J/K/mol
molar heat capacity at constant pressure (398.2 K, x1 = 0.1002): 294.27 ± 9.5 J/K/mol
molar heat capacity at constant pressure (398.2 K, x1 = 0.2041): 295.63 ± 9.5 J/K/mol
molar heat capacity at constant pressure (398.2 K, x1 = 0.2997): 294.27 ± 9.5 J/K/mol
molar heat capacity at constant pressure (398.2 K, x1 = 0.3922): 296.99 ± 9.5 J/K/mol
molar heat capacity at constant pressure (398.2 K, x1 = 0.5012): 295.63 ± 9.5 J/K/mol
molar heat capacity at constant pressure (398.2 K, x1 = 0.5907): 294.27 ± 9.5 J/K/mol
molar heat capacity at constant pressure (398.2 K, x1 = 0.7026): 294.27 ± 9.5 J/K/mol
molar heat capacity at constant pressure (398.2 K, x1 = 0.7987): 292.9 ± 9.5 J/K/mol
molar heat capacity at constant pressure (398.2 K, x1 = 0.9002): 292.9 ± 9.5 J/K/mol
molar heat capacity at constant pressure (398.2 K, x1 = 1): 294.27 ± 9.5 J/K/mol
molar heat capacity at constant pressure (403.19 K, x1 = 0.1002): 296.99 ± 9.5 J/K/mol
molar heat capacity at constant pressure (403.19 K, x1 = 0.2041): 298.35 ± 9.5 J/K/mol
molar heat capacity at constant pressure (403.19 K, x1 = 0.2997): 296.99 ± 9.5 J/K/mol
molar heat capacity at constant pressure (403.19 K, x1 = 0.3922): 299.71 ± 9.5 J/K/mol
molar heat capacity at constant pressure (403.19 K, x1 = 0.5012): 298.35 ± 9.5 J/K/mol
molar heat capacity at constant pressure (403.19 K, x1 = 0.5907): 296.99 ± 9.5 J/K/mol
molar heat capacity at constant pressure (403.19 K, x1 = 0.7026): 295.63 ± 9.5 J/K/mol
molar heat capacity at constant pressure (403.19 K, x1 = 0.7987): 295.63 ± 9.5 J/K/mol
molar heat capacity at constant pressure (403.19 K, x1 = 0.9002): 294.27 ± 9.5 J/K/mol
molar heat capacity at constant pressure (403.19 K, x1 = 1): 296.99 ± 9.5 J/K/mol
molar heat capacity at constant pressure (408.16 K, x1 = 0.1002): 299.71 ± 9.5 J/K/mol
molar heat capacity at constant pressure (408.16 K, x1 = 0.2041): 301.08 ± 9.5 J/K/mol
molar heat capacity at constant pressure (408.16 K, x1 = 0.2997): 299.71 ± 9.5 J/K/mol
molar heat capacity at constant pressure (408.16 K, x1 = 0.3922): 303.8 ± 9.5 J/K/mol
molar heat capacity at constant pressure (408.16 K, x1 = 0.5012): 302.44 ± 9.5 J/K/mol
molar heat capacity at constant pressure (408.16 K, x1 = 0.5907): 299.71 ± 9.5 J/K/mol
molar heat capacity at constant pressure (408.16 K, x1 = 0.7026): 299.71 ± 9.5 J/K/mol
molar heat capacity at constant pressure (408.16 K, x1 = 0.7987): 298.35 ± 9.5 J/K/mol
molar heat capacity at constant pressure (408.16 K, x1 = 0.9002): 296.99 ± 9.5 J/K/mol
molar heat capacity at constant pressure (408.16 K, x1 = 1): 299.71 ± 9.5 J/K/mol
molar heat capacity at constant pressure (413.19 K, x1 = 0.1002): 301.08 ± 9.5 J/K/mol
molar heat capacity at constant pressure (413.19 K, x1 = 0.2041): 302.44 ± 9.5 J/K/mol
molar heat capacity at constant pressure (413.19 K, x1 = 0.2997): 301.08 ± 9.5 J/K/mol
molar heat capacity at constant pressure (413.19 K, x1 = 0.3922): 305.16 ± 9.5 J/K/mol
molar heat capacity at constant pressure (413.19 K, x1 = 0.5012): 305.16 ± 9.5 J/K/mol
molar heat capacity at constant pressure (413.19 K, x1 = 0.5907): 301.08 ± 9.5 J/K/mol
molar heat capacity at constant pressure (413.19 K, x1 = 0.7026): 301.08 ± 9.5 J/K/mol
molar heat capacity at constant pressure (413.19 K, x1 = 0.7987): 299.71 ± 9.5 J/K/mol
molar heat capacity at constant pressure (413.19 K, x1 = 0.9002): 299.71 ± 9.5 J/K/mol
molar heat capacity at constant pressure (413.19 K, x1 = 1): 301.08 ± 9.5 J/K/mol
molar heat capacity at constant pressure (418.19 K, x1 = 0.1002): 303.8 ± 9.5 J/K/mol
molar heat capacity at constant pressure (418.19 K, x1 = 0.2041): 305.16 ± 9.5 J/K/mol
molar heat capacity at constant pressure (418.19 K, x1 = 0.2997): 303.8 ± 9.5 J/K/mol
molar heat capacity at constant pressure (418.19 K, x1 = 0.3922): 306.53 ± 9.5 J/K/mol
molar heat capacity at constant pressure (418.19 K, x1 = 0.5012): 306.53 ± 9.5 J/K/mol
molar heat capacity at constant pressure (418.19 K, x1 = 0.5907): 302.44 ± 9.5 J/K/mol
molar heat capacity at constant pressure (418.19 K, x1 = 0.7026): 303.8 ± 9.5 J/K/mol
molar heat capacity at constant pressure (418.19 K, x1 = 0.7987): 303.8 ± 9.5 J/K/mol
molar heat capacity at constant pressure (418.19 K, x1 = 0.9002): 302.44 ± 9.5 J/K/mol
molar heat capacity at constant pressure (418.19 K, x1 = 1): 303.8 ± 9.5 J/K/mol
